Experimental data published in patent US7868037B2 (PTC Therapeutics, Inc., priority 2004, dated 2011).
Read-outs that look alike come from different tables or passages of the source.

Experiments:
HCV replicon = test: microbe, parasite or virus in culture; assay type: cell-based, hepatitis C virus; details: Hepatitis C virus
[1] = system: cap-dependent translation (pLuc); test: Western blot of Fluc reporter protein in pLuc cells; assay type: cell-based, human; details: 20 hours, data not shown

SMILES	IC50 (HCV replicon; read-out: Replicon IC50 μM) [µM]	melting point [°C]	cap-dependent protein production (pLuc) in Western blot [1]	IC50 (HCV replicon; read-out: Replicon IC50) [µM]
CCOc1ccc2c(C#N)c(-c3ccc(NP(=O)(OCC)OCC)cc3)n(CC)c2c1 [Compound 772]	< 0.5	211 to 212		
CCOc1ccc2c(C#N)cn(CC)c2c1 [Compound 9, 6-ethoxy-1-ethyl-1H-indole-3-carbonitrile]	> 2	61 to 63		
CCn1c(-c2ccc3c(c2)N(C)C(=O)CO3)c(C#N)c2ccc(OC)cc21 [Compound 339, 1-ethyl-6-methoxy-2-(4-methyl-3-oxo-3,4,-dihydro-2H-benzo[1,4]oxazin-6-yl)-1H-indole-3-carbonitrile]	0.5 to 2	215 to 219		
CCn1cc(C#N)c2ccc(NC(=O)OC(C)(C)C)cc21 [Compound 16, t-butyl(3-cyano-1-ethyl-1H-indol-6-yl)-carbamate]	> 2	175 to 177		
CCn1cc(C#N)c2ccc(Oc3cnccn3)cc21 [Compound 13, 1-ethyl-6-(pyrazin-2-yloxy)-1H-indole-3-carbonitrile]	> 2	161 to 164		
CCn1c(-c2ccc(OCCNC(C)=O)cc2)c(C#N)c2ccc(OC)cc21 [Compound 274, N-{2-[4-(3-cyano-1-ethyl-6-methoxy-1H-indol-2-yl)-phenoxy]-ethyl}acetamide]	> 2	166 to 172		
CCn1c(-c2ccc(S(C)(=O)=O)cc2)c(C#N)c2ccc(OC)cc21 [Compound 265, 1-ethyl-2-(4-methanesulfonylphenyl)-6-methoxy-1H-indole-3-carbonitrile]	> 2	204 to 206		
CCNC(=O)NCCOc1ccc(-c2c(C#N)c3ccc(OC)cc3n2CC)cc1 [Compound 279, 1-{2-[4-(3-cyano-1-ethyl-6-methoxy-1H-indol-2-yl)-phenoxy]ethyl}-3-ethyl-urea]	> 2	197 to 202		
CCNC(=O)Nc1ccc2c(C#N)c(-c3ccc(OCC)cc3)n(CC)c2c1 [Compound 839, 1-[3-cyano-2-(4-ethoxyphenyl)-1-ethyl-1H-indol-6-yl]-3-ethyl-urea]	> 2	249 to 250		
CCn1c(C#Cc2ccc(F)cc2)c(C#N)c2ccc(OC)cc21 [Compound 67, 1-ethyl-2-(4-fluorophenylethynyl)-6-methoxy-1H-indole-3-carbonitrile]	0.5 to 2	132 to 136		
CCn1c(-c2ccc(N3CCCS3(=O)=O)cc2)c(C#N)c2ccc(OC(C)C)cc21 [Compound 666, 2-[4-(1,1-dioxo-1λ^6-isothiazolidin-2-yl)phenyl]-1-ethyl-6-isopropoxy-1H-indole-3-carbonitrile]	< 0.5	207 to 209		
CCn1c(-c2cccc(O)c2)c(C#N)c2ccc(OC)cc21 [Compound 288, 1-ethyl-2-(3-hydroxyphenyl)-6-methoxy-1H-indole-3-carbonitrile]	> 2	194 to 199		
CCn1c(-c2ccc(NS(C)(=O)=O)cc2)c(C#N)c2ccc(OC)cc21 [Compound 129, N-[4-(3-Cyano-1-ethyl-6-methoxy-1H-indol-2-yl)-phenyl]-methanesulfonamide]	0.5 to 2	188 to 190		
COc1ccc(C[C@H](N)C(=O)N[C@H]2[C@@H](O)[C@H](n3cnc4c(N(C)C)ncnc43)O[C@@H]2CO)cc1 [puromycin]			inhibited	
CCn1c(-c2ccc(NS(C)(=O)=O)cc2)c(C#N)c2ccc(OCCN3CCOCC3)cc21 [Compound 478, N-{4-[3-cyano-1-ethyl-6-(2-morpholin-4-yl-ethoxy)-1H-indol-2-yl]-phenyl}methanesulfonamide]		172 to 175		< 0.5
CCn1c(-c2ccc(N(C)S(C)(=O)=O)cc2)c(C#N)c2ccc(OC)cc21 [Compound 180, N-[4-(3-cyano-1-ethyl-6-methoxy-1H-indol-2-yl)-phenyl]-N-methyl methanesulfonamide]	0.5 to 2	170 to 171		
CCn1c(COc2ccccc2)c(C#N)c2ccc(OC)cc21 [Compound 99, 1-ethyl-6-methoxy-2-phenoxymethyl-1H-indole-3-carbonitrile]	> 2	123.4 to 123.8		
CCn1c(C#Cc2ccc(NC(=O)C3CC3)cc2)c(C#N)c2ccc(O)cc21 [Compound 194, cyclopropanecarboxylic acid [4-(3-cyano-1-ethyl-6-hydroxy-1H-indol-2-ylethynyl)-phenyl]amide]	0.5 to 2	278 to 284		
COc1ccc2c(C#N)c(-c3ccc(N4CCCS4(=O)=O)cc3)n(CC3CC3)c2c1 [Compound 716, 2-[4-(1,1-dioxidoisothiazolidin-2-yl)phenyl]-1-cyclopropylmethyl-6-methoxy-1H-indole-3-carbonitrile]	< 0.5	204 to 205		
